pIC50: −log10 of the molar value. Where a name gives a salt, the structure may show the parent alone. Read-outs that look alike come from different tables or passages of the source.
Assays:
[1] = molecular target: BIR3 domain of human XIAP (residues 252-350) (Homo sapiens (Human), UniProt P98170); test: XIAP in vitro competitive displacement binding assay (fluorescence polarization); conditions: for pIC50: read-out: IC50 or PI Xiap: IC50
[2] = molecular target: BIR3 domain of human cIAP-1 (residues 267-363) (Homo sapiens (Human), UniProt Q13490); test: cIAP-1 in vitro competitive displacement binding assay (fluorescence polarization; Probe A AVPIK(5&6FAM)-amide or Probe B AbuRPFK(5&6FAM)-amide)
[3] = read-out: IC50 or PI cIAP1: IC50
[4] = 1 h, read-out: IC50 or PI Xiap: PI
[5] = 3 h, Probe A, read-out: IC50 or PI cIAP1: PI
[6] = Probe A AVPIK(5&6FAM)-amide, read-out: IC50 or PI cIAP1: IC50
[7] = Probe B AbuRPFK(5&6FAM)-amide, read-out: IC50 or PI cIAP1: IC50

Row | SMILES | pIC50 [1] | pIC50 [2, 7] | also measured
1 | C[C@@H]1CN(CC(=O)N2CC(C)(C)c3ncc(C(=O)c4ccccc4)cc32)[C@@H](CN2CCCC2=O)CN1 [Example 187, 1-{[(2R,5R)-1-(2-{6-Benzoyl-3,3-dimethyl-1H,2H,3H-pyrrolo[3,2-b]pyridin-1-yl}-2-oxoethyl)-5-methylpiperazin-2-yl]methyl}pyrrolidin-2-one dihydrochloride] | 6.96 | – | pIC50 [2, 3]: 7.49
2 | C[C@@H]1CN(CC(=O)N2CCc3ccc(NS(C)(=O)=O)cc32)CCN1 [Example 8, N-{1-[2-((R)-3-Methyl-piperazin-1-yl)-acetyl]-2,3-dihydro-1H-indol-6-yl}-methane-sulfonamide] | – | – | inhibition at 160 µM [1, 4]: 59%; inhibition at 160 µM [2, 5]: 46%
3 | COC[C@H]1CN[C@H](C)CN1CC(=O)N1CC(C)(C)c2cc(=O)n(C)cc21 [Example 66, 1-[2-((2R,5R)-2-Methoxymethyl-5-methyl-piperazin-1-yl)-acetyl]-3,3,6-trimethyl-1,2,3,6-tetrahydro-pyrrolo[2,3-c]pyridin-5-one hydrochloride salt] | – | – | inhibition at 10 µM [1, 4]: 44%; inhibition at 3 µM ([2]; 3 h, Probe B, @ 3 μM, read-out: IC50 or PI cIAP1: PI): 53%
4 | COc1ccc2c(c1)N(C(=O)CN1CCN[C@H](C)C1)CC2 [Example 5, 1-(6-Methoxy-2,3-dihydro-indol-1-yl)-2-((R)-3-methyl-piperazin-1-yl)-ethanone] | – | – | inhibition at 160 µM [1, 4]: 49%; pIC50 [2, 6]: 4.11
5 | COC[C@H]1CN[C@H](C)CN1CC(=O)N1C[C@@](C)(COC)c2ccc(Br)cc21 [Example 169, 1-[(3S)-6-Bromo-3-(methoxymethyl)-3-methyl-2,3-dihydro-1H-indol-1-yl]-2-[(2R,5R)-2-(methoxymethyl)-5-methylpiperazin-1-yl]ethan-1-one hydrochloride] | 6.04 | 6.49 | –
6 | COC[C@H]1CN[C@H](C)CN1CC(=O)N1CC(C)(C)c2cnc(N(C)c3ccccc3)cc21 [Example 84, 1-[3,3-Dimethyl-6-(methyl-phenyl-amino)-2,3-dihydro-pyrrolo[3,2-c]pyridin-1-yl]-2-((2R,5R)-2-methoxymethyl-5-methyl-piperazin-1-yl)-ethanone hydrochloride salt] | 5.06 | 5.89 | pIC50 [2]: > 5.00
7 | CCC1(C)CN(C(=O)CN2C[C@@H](C)NC[C@@H]2COC)c2cc(Cl)ccc21 (stereo partly drawn) [Example 123, 1-(6-Chloro-3-ethyl-3-methyl-2,3-dihydro-1H-indol-1-yl)-2-[(2R,5R)-2-(methoxymethyl)-5-methylpiperazin-1-yl]ethan-1-one hydrochloride] | 5.89 | 6.28 | –
8 | COC[C@H]1CN[C@H](C)CN1CC(=O)N1CC(C)(C)c2cnc(N3CCCC3=O)cc21 [Example 102, 1-(1-{2-[(2R,5R)-2-(Methoxymethyl)-5-methylpiperazin-1-yl]acetyl}-3,3-dimethyl-1H,2H,3H-pyrrolo[3,2-c]pyridin-6-yl)pyrrolidin-2-one, hydrochloride salt] | 5.49 | 6.19 | pIC50 [2]: > 6.00
9 | COC[C@H]1CN[C@H](C)CN1CC(=O)N1CC(C)(C)c2ccc(CN3CCCC3=O)cc21 [Example 125, 1-[(1-{2-[(2R,5R)-2-(Methoxymethyl)-5-methylpiperazin-1-yl]acetyl}-3,3-dimethyl-2,3-dihydro-1H-indol-6-yl)methyl]pyrrolidin-2-one hydrochloride] | 4.54 | 6.14 | –
10 | C[C@@H]1CN(CC(=O)N2CCc3ccc(C(=O)N4CCCC4)cc32)CCN1 [Example 18, 2-((R)-3-Methyl-piperazin-1-yl)-1-[6-(pyrrolidine-1-carbonyl)-2,3-dihydro-indol-1-yl]-ethanone] | – | – | inhibition at 49 µM ([1]; 1 h, @ 49 μM, read-out: IC50 or PI Xiap: PI): 47%; inhibition at 49 µM ([2]; 3 h, Probe A, @ 49 μM, read-out: IC50 or PI cIAP1: PI): 43%
11 | CNC(=O)[C@H]1CN[C@H](C)CN1CC(=O)N1CC(C)(C)c2ccc(Cl)cc21 [Example 54, (2R,5R)-1-[2-(6-Chloro-3,3-dimethyl-2,3-dihydro-indol-1-yl)-2-oxo-ethyl]-5-methyl-piperazine-2-carboxylic acid methylamide hydrochloride salt] | 5.74 | 5.68 | –
12 | COC[C@H]1CN[C@H](C)CN1CC(=O)N1CC(C)(C(=O)OC)c2ccc(Br)cc21 (stereo partly drawn) [Example 129, Methyl 6-bromo-1-{2-[(2R,5R)-2-(methoxymethyl)-5-methylpiperazin-1-yl]acetyl}-3-methyl-2,3-dihydro-1H-indole-3-carboxylate hydrochloride] | 5.89 | 6.32 | –
13 | COC[C@H]1CN[C@H](C)CN1CC(=O)N1C[C@](C)(COC)c2ccc(Br)cc21 [Example 168, 1-[(3R)-6-Bromo-3-(methoxymethyl)-3-methyl-2,3-dihydro-1H-indol-1-yl]-2-[(2R,5R)-2-(methoxymethyl)-5-methylpiperazin-1-yl]ethan-1-one hydrochloride] | 5.40 | 6.05 | –
14 | C[C@@H]1CN(CC(=O)N2CCc3ccccc32)CCN1 [Example 85, 1-(2,3-Dihydro-1H-indol-1-yl)-2-[(3R)-3-methylpiperazin-1-yl]ethan-1-one, hydrochloride salt] | – | – | inhibition at 500 µM ([1]; 1 h, @ 500 μM, read-out: IC50 or PI Xiap: PI): 52%; inhibition at 250 µM ([2]; 3 h, Probe A, @ 250 μM, read-out: IC50 or PI cIAP1: PI): 45%
15 | COC[C@H]1CN[C@H](C)CN1CC(=O)N1CC(C)(C)c2ccc(-c3nnn[nH]3)cc21 [Example 258, 1-[3,3-Dimethyl-6-(1H-tetrazol-5-yl)-2,3-dihydro-indol-1-yl]-2-((2R,5R)-2-methoxymethyl-5-methyl-piperazin-1-yl)-ethanone hydrochloride] | – | – | inhibition at 10 µM [1, 4]: 58%; inhibition at 30 µM ([2]; 3 h, Probe B, @ 30 μM, read-out: IC50 or PI cIAP1: PI): 37%
16 | C[C@@H]1CN(CC(=O)N2CCc3ccc(N(C)c4ccccc4)cc32)CCN1 [Example 2, 1-[6-(Methyl-phenyl-amino)-2,3-dihydro-indol-1-yl]-2-((R)-3-methyl-piperazin-1-yl)-ethanone Trifluoroacetate salt] | 4.39 | – | pIC50 [2, 3]: 4.10
17 | COC[C@H]1CN[C@H](C)CN1CC(=O)N1CC(C)(COC)c2ccc(Br)cc21 (stereo partly drawn) [Example 127, 1-[6-Bromo-3-(methoxymethyl)-3-methyl-2,3-dihydro-1H-indol-1-yl]-2-[(2R,5R)-2-(methoxymethyl)-5-methylpiperazin-1-yl]ethan-1-one hydrochloride] | 5.92 | 6.46 | –
18 | C[C@@H]1CN(CC(=O)N2C[C@](C)(c3ccccc3)c3ccc(C#N)cc32)[C@@H](Cn2cccn2)CN1 [Example 155, (3R)-3-Methyl-1-{2-[(2R,5R)-5-methyl-2-(1H-pyrazol-1-ylmethyl)piperazin-1-yl]acetyl}-3-phenyl-2,3-dihydro-1H-indole-6-carbonitrile] | 7.14 | 6.59 | –
19 | C[C@@H]1CN(CC(=O)N2CCc3cnccc32)CCN1 [Example 14, 1-(2,3-Dihydro-pyrrolo[3,2-c]pyridin-1-yl)-2-((R)-3-methyl-piperazin-1-yl)-ethanone] | – | – | inhibition at 99 µM ([1]; 1 h, @ 99 μM, read-out: IC50 or PI Xiap: PI): 53%; inhibition at 160 µM [2, 5]: 46%
20 | COC[C@H]1CN[C@H](C)CN1CC(=O)N1CC(C)(C)c2cnc(C(C)(F)F)cc21 [Example 181, 1-[6-(1,1-Difluoroethyl)-3,3-dimethyl-1H,2H,3H-pyrrolo[3,2-c]pyridin-1-yl]-2-[(2R,5R)-2-(methoxymethyl)-5-methylpiperazin-1-yl]ethan-1-one dihydrochloride] | 6.48 | – | pIC50 [2]: > 6.00; pIC50 [2, 3]: 6.60

Continued, in another order:

Row | pIC50 [1] | pIC50 [2, 7] | SMILES | also measured
21 | 5.80 | 4.21 | CNS(=O)(=O)c1cc2c(cc1Br)CCN2C(=O)CN1CCN[C@H](C)C1 [Example 25, 5-Bromo-1-[2-((R)-3-methyl-piperazin-1-yl)-acetyl]-2,3-dihydro-1H-indole-6-sulfonic acid methylamide hydrochloride salt] | pIC50 [2, 6]: 4.22
22 | 5.62 | – | C[C@@H]1CN(CC(=O)N2CCc3cc(Br)c(S(=O)(=O)N(C)C)cc32)CCN1 [Example 26, 5-Bromo-1-[2-((R)-3-methyl-piperazin-1-yl)-acetyl]-2,3-dihydro-1H-indole-6-sulfonic acid dimethylamide hydrochloride salt] | pIC50 [2, 6]: 4.57
23 | 3.89 | – | C[C@@H]1CN(CC(=O)N2CCc3cc(F)ccc32)CCN1 [Example 9, 1-(5-Fluoro-2,3-dihydro-indol-1-yl)-2-((R)-3-methyl-piperazin-1-yl)-ethanone] | pIC50 [2, 6]: 3.77
24 | 4.74 | – | C[C@@H]1CN(CC(=O)N2CC3(CCN(C(=O)OCc4ccccc4)CC3)c3ccc(Cl)cc32)CCN1 [Example 23, Benzyl 6-chloro-1-{2-[(3R)-3-methyl-piperazin-1-yl]acetyl}-1,2-dihydro-spiro[indole-3,4′-piperidine]-1′-carboxylate hydrochloride salt] | pIC50 [2, 6]: 4.96
25 | 4.85 | 4.82 | C[C@@H]1CN(CC(=O)N2CC3(CCCC3)c3ccc(Cl)cc32)CCN1 [Example 50, 1-{6′-Chloro-1′,2′-dihydrospiro[cyclopentane-1,3′-indole]-1′-yl}-2-[(3R)-3-methyl-piperazin-1-yl]ethan-1-one hydrochloride salt] | –
26 | 5.74 | – | C[C@@H]1CN(CC(=O)N2CCc3ccc(S(=O)(=O)N4CCCC4)cc32)CCN1 [Example 37, 2-((R)-3-Methyl-piperazin-1-yl)-1-[6-(pyrrolidine-1-sulfonyl)-2,3-dihydro-indol-1-yl]-ethanone hydrochloride salt] | pIC50 [2, 6]: 4.64
27 | 3.82 | – | C[C@@H]1CN(CC(=O)N2CC(C)(C)c3c(Cl)cccc32)CCN1 [Example 19, 1-(4-Chloro-3,3-dimethyl-2,3-dihydro-indol-1-yl)-2-((R)-3-methyl-piperazin-1-yl)-ethanone] | pIC50 [2, 6]: 4.77
